In patent US20260108483A1, “METHODS AND COMPOSITIONS FOR PREVENTING THE PROGRESSION OF DIABETIC RETINOPATHY AND RELATED CONDITIONS” (Opus Genetics, Inc., priority 2023, published 2026):

Test: Clinical study safety: alanine aminotransferase in subjects' blood
Type: in vivo, human
Details: combined placebo + Compound 1 patients; for Mean Concentration of Alanine Aminotransferase in Subjects' Blood: Baseline 22.4
Description: The study was configured as a placebo-controlled, double-masked, randomized, Phase 2 study in approximately 100 subjects with moderately severe to severe NPDR (diabetic retinopathy severity score [DRSS] Level 47 or 53, see FIG. 1) or mild PDR (DRSS Level 61), evaluating safety and efficacy following administration of Compound 1 twice daily for 24 weeks. The study was configured for a 1:1 randomization (placebo: Compound 1). Randomization was stratified by level of disease severity (NPDR or PDR). Subjects with mild PDR were capped at 20% for each arm. Efficacy evaluations at 12 and/or 24 weeks included DRSS, center-involved diabetic macular edema (DME), moderate PDR or PDR-related adverse events (AEs), best-corrected visual acuity (BCVA), and central subfield thickness (CST). Further experimental procedures and results are described below.
At the Qualification/Baseline (Visit 2, Day 1): • The subject was randomized into the study. • Study medication was dispensed in accordance with the subjects randomized treatment arm. • Blood samples were drawn pre-dose for baseline levels and on Visit 9 (Week 24) for exploratory biomarker processing (i.e., cytokine and Ref-1 levels) to evaluate pharmacodynamic properties. • Subjects were instructed to administer their study medication (Compound 1 or placebo) each day, with 3 tablets every morning and 2 tablets every evening. Study medication was to be taken at approximately the same time each day and may be taken with or without food.
At the Second Treatment Visit (Visit 6, Week 12±2 Days), subjects were to return to the site for the following series of safety and efficacy assessments: drug accountability, concomitant medications, urine pregnancy test (only for women of childbearing potential), HR/BP/vital signs, BCVA (ETDRS), DRSS, CST (SD-OCT), blood draw for PK, blood chemistry, blood hematology, biomicroscopy, ophthalmoscopy, IOP, eGFR, and AEs. Following the completion of the assessments, used medication kits were collected for accountability (by counting the number of unused tablets), and new study medication kits dispensed.
At the Third Treatment Visit (Visit 9, Week 24±2 Days), subjects were to return to the site for the following series of safety and efficacy assessments: drug accountability, concomitant medications, urine pregnancy test (only for women of childbearing potential), physical examination, HR/BP/vital signs, BCVA (ETDRS), DRSS, CST (SD-OCT), blood chemistry, blood hematology, biomicroscopy, ophthalmoscopy, IOP, eGFR, AEs, and blood draw for exploratory biomarkers (ELISA, cytokine panel, comprehensive metabolic panel). Visit 9 (Week 24) was the end of the treatment period. Study medication was returned for accountability (by counting the number of unused tablets), and no further study medication dispensed.
Safety endpoints include: • Incidence and severity of systemic and ocular AEs, • Change from baseline in body system assessments, • Change from baseline in vital sign measurements, • Change from baseline in clinical laboratory assay results (blood chemistry, hematology), • Change from baseline in intraocular pressure (IOP), • Change from baseline in slit-lamp examination parameters, • Change from baseline in dilated funduscopic examination parameters, • Percent of subjects with a decrease of ≥10 letters in BCVA compared to baseline at Week 12 and Week 24, • Percent of subjects progressing to center-involved DME (eligible for rescue treatment at Week 12 and Week 24), • Percent of subjects with a worsening in DRSS of ≥2 steps in the study eye at Week 12 and Week 24, • Percent of subjects developing anterior segment neovascularization at Week 12 and Week 24, • Percent of subjects rescued (intravitreal anti-VEGF injection, laser PRP, focal/grid laser treatment, or surgery [vitrectomy]) at the discretion of the Investigator at Week 12 and Week 24, and • Change from baseline in estimated glomerular filtration rate (eGFR) at Week 12 and Week 24. […]

## CCCCCCCCC/C(=C\C1=C(C)C(=O)C(OC)=C(OC)C1=O)C(=O)O [Compound 1, (E)-2-((4,5-dimethoxy-2-methyl-3,6-dioxocyclohexa-1,4-dien-1-yl)methylene)undecanoic acid]
Week 12, 53 subjects
  Mean Concentration of Alanine Aminotransferase in Subjects' Blood: 21.6 IU/L
Week 24, 24 subjects
  Mean Concentration of Alanine Aminotransferase in Subjects' Blood: 20.4 IU/L
Week 12, 50 subjects
  change in mean concentration of alanine aminotransferase relative to Baseline: −0.8 IU/L
  reduction in mean concentration of alanine aminotransferase relative to Baseline: 3.6%
Week 24, 22 subjects
  change in mean concentration of alanine aminotransferase relative to Baseline: −2.1 IU/L
  reduction in mean concentration of alanine aminotransferase relative to Baseline: 9.4%
